Square brackets hold non-standard residues; d marks the D form. Peptide text beside a SMILES is read from it. * marks the point of attachment. Sta = CC(C)C[C@H](N)[C@@H](O)CC(=O)O; Isovaleryl = CC(C)CC(=O)*

Experiment [1] can be described thus: dot-blot ^65Zn^2+ binding to synthetic peptides (putative zinc-binding domain of APP). Particulars: for ability to bind ^65Zn^2+: 16 μg peptide dot-blotted. The method, then: 16 μg of the synthesized peptide […], representing residues 181-214 of APP695 (or residues 181-200), or 16 μg of control peptide, was dissolved in 200 μl of blocking buffer (50 mM Tris-HCl, 1 mM MnCl2 10 mM β-mercaptoethanol, 20% methanol, pH 7.4) and dot-blotted onto PVDF (Immobilon-P, Millipore, Befored, Mass.) which had been pre-wetted with methanol. The blot was then incubated for 30 mins at 20° C. with 100,000 CPM of ^65Zn^2+ in blocking buffer, in the presence or absence of various concentrations of competing unlabeled Zn^2+ or other divalent cations. After incubation the dot-blot was washed three times with 200 μl of blocking buffer without MnCl2, the dot was excised and placed in 10 ml of scintillant and assayed by β-counting.

The test system of experiment [2] is human brain 130/110 kDa APP. Briefly: ^65Zn binding to human brain 130/110 kDa APP (time course, competition, Scatchard). Particulars: for ^65Zn label competed off APP (of Bmax): unlabelled metal ion at 20 μM; for shift of competition curve relative to the Zn^2+ competition curve: competition for ^65Zn binding. An excerpt: FIG. 4 is a graphical representation showing a time course analysis of ^65Zn binding to human brain 130/110 kDa APP. Amyloid protein precursor (APP) was purified according to the method in Moir et al. (1992). The preparation of purified 130 and 110 kDa APP was derived from human brain membrane extracts and contained the full-length precursor with carboxyl terminus intact but lacked the 17 residue signal peptide. The 130 and 110 kDa proteins were apparent in equal ratios on silver staining following polyacrylamide gel electrophoresis and were the only bands visible. The identity of these two proteins was confirmed by Western blots with monoclonal antibody 22C11 (which recognises an amino terminal epitope on APP), and by amino terminal sequencing. The protein concentration of the APP preparation was determined by amino acid analysis. Aliquots of APP (90 ng, =1.1 pmole, assuming the average amino acid formula weight of APP is =80 kDa) were incubated at 20° C. for the times indicated. Incubations (50 μl) were performed in 150 mM NaCl, 50 mM Tris-Hcl, pH 7.4 in the presence of 10^6 cpm of ^65Zn (175 nM). The incubation solution was then applied to a 1.1 ml bed volume Sephadex G25 (Pharmacia, Uppsala, Sweden) column pre-equilibrated with 150 mM NaCl, 50 mM Tris-HCl, pH 7.4 and allowed to settle before being desalted with 645 μl of the Equilibration buffer. […] The desalted protein was collected directly into counting tubes containing 10 ml aqueous counting scintillant. Less than two minutes was required to complete the desalting. The amount of ^65Zn bound to desalted APP was determined by counting the collected sample in a beta-counter set to the broadest channel. Counting was determined to be 51% efficient. The values shown are means±SD of n≧3 readings.
FIG. 5 is a graphical representation showing a competition analysis of ^65Zn binding to human brain 130/110 kDa APP. Aliquots of APP were incubated for 30 minutes with ^65Zn as in FIG. 4. The binding of the labelled Zn^2+ to APP was subjected to competition with unlabelled Zn^2+ in the form of the chloride salt. Data shown indicate the competition curves generated at pH 6.4 and 7.4. The binding of Zn^2+ to APP deteriorated at the lower pH (=45% of Bmax, pH 7.4). The values are means±SEM of n≧3 readings. The curves illustrated are typical of three experiments.
FIG. 6 is a graphical representation depicting a Scatchard analysis of ^65Zn binding to human brain 130/110 kDa APP.
Binding analysis was performed as follows: Aliquots of APP (90 ng, =1.1 pmole, assuming the average amino acid formula mass of APP is =80 kDa) were incubated at 20° C. Incubations (50 μl) were performed in 150 mM NaCl, 50 mM Tris-HCl, pH 7.4 in the presence of 10^6 CPM of ^65Zn (175 nM). The incubation solution was then applied to a 1.1 ml bed volume Sephadex G25 (Pharmacia, Uppsala, Sweden) column pre-equilibrated with 150 mM NaCl, 50 mM Tris-HCl, pH 7.4 and allowed to settle before being desalted with 645 μl of the equilibration buffer. […] The deslated protein was collected directly into counting tubes containing 10 ml aqueous counting scintillant (ACSII, Amersham). Less than two minutes was required to complete the desalting. The amount of ^65Zn bound to desalted APP was determined by counting the collected sample in a beta-counter set to the broadest channel. Counting was determined to be 51% efficient. The binding of the labelled Zn^2+ to APP was subjected to competition with unlabelled Zn^2+ and other metal chloride salts.

Experiment [3] concerns human brain full-length APP. Briefly: ^125I-APP binding to heparin-Sepharose. As to conditions: for effect on profile of ^125I-APP elution from heparin-Sepharose: Co^2+ at 75 μM. The method, then: 100 kDa human brian full-length APP was iodinated by the Chloramine-T method. Iodinated APP (^125I-APP) was then separated from labelling reagents by Sephacryl G25 chromatography.
The column was then washed with 6 ml buffer 1 and the APP eluted with aliquots of high-NaCl buffers.

Experiment [4] deals with APP-degrading protease. Briefly: Assay of APP-degrading protease (Zn^2+-enhanced degradation of plasma 130 kDa APP). It is filed as biochemical, human.
For experiment [5], the system named is PC12 cells. Put plainly: Effect of extracellular zinc on cultured PC12 cells (APP by Western blot). Format: cell-based. Particulars: 48 hr. The method, then:
10^6 PC12 cells were plated for 24 hr in the presence of Dulbecco's modified Eagle's medium (DMEM, N2) supplemented with 8% fetal calf serum (FCS). The medium was then removed and replaced with DMEM±2 to 50 μM ZnCl2 or another salt, and no FCS. Cells and media were harvested 48 hr later and aliquots of media, cell cytosol and membrane (following lysis and ultracentrifugation) were assayed for APP by Western blotting with mAb 22C11.
In general terms: Immunoblotting shows a protein as a band on a membrane.

The mark [6] stands for this setting: young adult control preparation, two hours at 37° C., 20 μM ZnCl2.

“residues 422-433: peptide representing another region of the APP molecule (VESLEQEAANER; UniProt P05067 439-450, looked up, fragment)”: in experiment [1], the “ability to bind ^65Zn^2+” value is on record as “unable to bind Zn^2+”.

In the case of `[Co+2]` [Co^2+, reference compound], the “^65Zn label competed off APP (of Bmax)” value in experiment [2] turned out to be 70%. The “effect on profile of ^125I-APP elution from heparin-Sepharose” value (shortened to “effect on profile of ^125I-APP elution”) in experiment [3] is “increased the recovery of ^125I-APP in the 100-500 and 500-2000 mM NaCl fractions”.

As to `CCN1C(=O)C=CC1=O` [N-ethyl maleimide, N-ethylmaleimide], the “influence on Zn^2+-enhanced APP proteolysis” value (from here on “influence”) in experiment [4] (setting [6]) is recorded as “Neither Al3Cl, the cysteine-protease inhibitor N-ethyl maleimide, nor the acid-protease inhibitor pepstatin A influenced the reaction”.

On to `[Cl][Cu]` [cuprous chloride, reference compound], for which the “effect on APP released into the media compared with zinc” value (from here on “effect … compared with zinc”) in experiment [5] was “far smaller stimulatory effects”.

In the case of `[Cl][Al]([Cl])[Cl]` [Al^3+], the “^65Zn label competed off APP (of Bmax)” value in experiment [2] stood at 60%. Moreover, in experiment [3], the “increase in ^125I-APP recovery in the 500-2000 mM NaCl fraction” value is listed as “approximately 4.5 fold” and the “effect on profile of ^125I-APP elution” value is listed as “decreased the recovery of ^125I-APP except in the 500-2000 mM NaCl fraction”.

On to Insulin A chain: control peptide, for which the “ability to bind ^65Zn^2+” value in experiment [1] is “unable to bind Zn^2+”.

In the case of “GVEFVCCPLAEESDNVDSADAEEDDSDVWWGGAD [residues 181-214 of APP]”, in experiment [1], the “ability to bind ^65Zn^2+” value was “able to bind Zn^2+ in a saturable and specific manner”.

Take `[Cl][Fe][Cl]` [FeCl2, reference compound]: the “effect … compared with zinc” value in experiment [5] is recorded as “had a similar effect”.

As to aprotinin, the “influence” value in experiment [4] (setting [6]) is listed as “completely inhibited”.

Take `CC(C)CC(=O)N[C@H](C(=O)N[C@H](C(=O)N[C@@H](CC(C)C)[C@@H](O)CC(=O)N[C@@H](C)C(=O)N[C@@H](CC(C)C)[C@@H](O)CC(=O)O)C(C)C)C(C)C` [pepstatin A] (Isovaleryl-VV[Sta]A[Sta]-OH): the “influence” value in experiment [4] ([…]) is recorded as “Neither Al3Cl, the cysteine-protease inhibitor N-ethyl maleimide, nor the acid-protease inhibitor pepstatin A influenced the reaction”.

For “residues 645-655: peptide representing another region of the APP molecule (KTEEISEVKMD; UniProt P05067 662-672, looked up, fragment)”, the “ability to bind ^65Zn^2+” value in experiment [1] was “unable to bind Zn^2+”.

Take `O=C(O)CN(CCN(CC(=O)O)CC(=O)O)CC(=O)O` [EDTA, ethylene diamine tetra acetic acid]: the “influence” value in experiment [4] (setting [6]) is on record as “completely inhibited”.

As for Insulin B chain: positive control, in experiment [1], the “ability to bind ^65Zn^2+” value was “bound ^65Zn^2+”.

For the molecule renin, the “ability to bind ^65Zn^2+” value in experiment [1] is “unable to bind Zn^2+”.

With `[Cu+2]` [Cu^2+, reference compound], the “^65Zn label competed off APP (of Bmax)” value in experiment [2] was determined as 60%.

Take `[Cl-].[Cl-].[Mg+2]` [Mg^2+, reference compound]: the “shift of competition curve relative to the Zn^2+ competition curve” value in experiment [2] is listed as “shifted greater than two log units to the right”. Besides, the “effect on profile of ^125I-APP elution” value in experiment [3] is “did not alter the profile of ^125I-APP elution”.

Consider “residues 581-601: peptide representing another region of the APP molecule (TETKTTVELLPVNGEFSLDDL; UniProt P05067 598-618, looked up, fragment)”, for which, in experiment [1], the “ability to bind ^65Zn^2+” value was “unable to bind Zn^2+”.

In the case of “residues 189-220 of APP695: synthetic peptide lacking the cysteine residues at positions 186/187 (LAEESDNVDSADAEEDDSDVWWGGADTDYADG; APP695; UniProt P05067 189-220, looked up, fragment)”, the “amount of ^65Zn^2+ binding relative to same quantity of 181-214 peptide” value in experiment [1] is reported as “approximately 15%”.

With `[Cl][Al]([Cl])[Cl]` [Al3Cl, reference compound], the “influence” value in experiment [4] (setting [6]) is on record as “Neither Al3Cl, the cysteine-protease inhibitor N-ethyl maleimide, nor the acid-protease inhibitor pepstatin A influenced the reaction”. The “effect … compared with zinc” value in experiment [5] is given as “far smaller stimulatory effects”.

As for “carboxyamidomethylated 181-214 peptide: the 181-214 peptide where the cysteines had been modified by carboxyamidomethylation”, the “amount of ^65Zn^2+ binding relative to same quantity of 181-214 peptide” value in experiment [1] is on record as “approximately 15%”.

`[Ca+2].[Cl-].[Cl-]` [Ca^2+, reference compound]: the “shift of competition curve relative to the Zn^2+ competition curve” value in experiment [2] is on record as “shifted greater than two log units to the right”. Further, in experiment [3], the “effect on profile of ^125I-APP elution” value was “did not alter the profile of ^125I-APP elution”.

Turning to “residues 181-200 of APP: synthetic peptide representing about residues 181-200 of APP (SADAEEDDSDVWWGGADTDY; UniProt P05067 198-217, looked up, fragment)”, the “ability to bind ^65Zn^2+” value in experiment [1] is “bind zinc in a specific and saturable manner”.

B1: soya bean trypsin inhibitor (protein, UniProt P01070 25-205, looked up)
Trypsin inhibitor A: DFVLDNEGNPLENGGTYYILSDITAFGGIRAAPTGNERCPLTVVQSRNELDKGIGTIISSPYRIRFIAEGHPLSLKFDSFAVIMLCVGIPTEWSVVEDLPEGPAVKIGENKDAMDGWFRLERVSDDEFNNYKLVFCPQQAEDDKCGDIGISIDHDDGTRRLVVSKNKPLVVQFQKLDKESL
For the molecule B1, the “influence” value in experiment [4] (setting [6]) is on record as “completely inhibited”.

B2: α1-antichymotrypsin (protein, UniProt P01011 24-423, looked up)
Alpha-1-antichymotrypsin: HPNSPLDEENLTQENQDRGTHVDLGLASANVDFAFSLYKQLVLKAPDKNVIFSPLSISTALAFLSLGAHNTTLTEILKGLKFNLTETSEAEIHQSFQHLLRTLNQSSDELQLSMGNAMFVKEQLSLLDRFTEDAKRLYGSEAFATDFQDSAAAKKLINDYVKNGTRGKITDLIKDLDSQTMMVLVNYIFFKAKWEMPFDPQDTHQSRFYLSKKKWVMVPMMSLHHLTIPYFRDEELSCTVVELKYTGNASALFILPDQDKMEEVEAMLLPETLKRWRDSLEFREIGELYLPKFSISRDYNLNDILLQLGIEEAFTSKADLSGITGARNLAVSQVVHKAVLDVFEEGTEASAATAVKITLLSALVETRTIVRFNRPFLMIIVPTDTQNIFFMSKVTNPKQA
As for B2, the “influence” value in experiment [4] (setting [6]) is reported as “incompletely inhibited”.

(Values after patent US20040265847A1, “Method for treating Alzheimer's disease” (priority 1991, published 2004).)
